Data taken from PMC12118597 (Science Advances, 2025).
Like-named read-outs stand apart in the source and are kept apart here.

Target: SARS-CoV-2 NSP3 macrodomain (Mac1) (Severe acute respiratory syndrome coronavirus 2, UniProt P0DTD1)
Assay: biochemical
Type: binding
[1] = Single dose, concentration 200 μM
[2] = compound at 200 μM, mean of three to four technical replicates, read-out: % competition at 200 μM (preliminary HTRF screen)
[3] = SARS CoV-2 macrodomain HTRF assay
[4] = SARS CoV-2 macrodomain HTRF assay, dose-response, read-out: IC50
[5] = read-out: IC50 (confirmatory HTRF dose-response screen)
[6] = SARS CoV-2 macrodomain HTRF assay, single dose concentration 200 μM, read-out: Average % competition
[7] = single dose concentration 200 μM (TS-FrankenROCS series)

| Compound | Average % competition [%] | Ki [3] [µM] | Ligand efficiency (binding enery per heavy atom) [3] | also measured |
| --- | --- | --- | --- | --- |
| Cc1nc(-c2cccc(NC(=O)NCc3cccs3)c2)n[nH]1 [AVI-306] |  |  |  | IC50 (dose-response, read-out: IC50): > 1000 µM |
| O=C1CCc2cc(C(=O)N3CC(C(=O)O)CCC34CCCC4)c(F)cc2N1 (centres unmarked) [AVI-338] |  |  |  | Ligand efficiency (binding enery per heavy atom): 0.16; Ki (dose-response): 740 µM; IC50 (dose-response, read-out: IC50): 800 µM |
| O=C(O)c1ccc2c(c1)C(NC(=O)C1CCn3ncnc3C1)CCC2 (centres unmarked) [AVI-333] | 21 |  |  |  |
| O=C(O)C(F)(F)F.OC1c2ccccc2CC1Nc1ncnc2[nH]ccc12 (centres unmarked) [AVI-3634] |  |  |  | Average % competition [1]: <10%; inhibition at 200 µM [2]: < 10% |
| OC1(CNc2ncnc3[nH]ccc23)CCCCC1 [AVI-6217] |  | 39 | 0.34 | IC50 [4]: 42 µM |
| O=C(NCCCN1C(=O)NC2(CCCC2)C1=O)c1ccc(=O)[nH]c1 [AVI-300] | 8 |  |  |  |
| COc1ccc(-c2nccc(N3CCC(c4ccsc4)CC3)n2)cc1 [AVI-344] | <10 |  |  |  |
| Cc1ccc(CC(=O)N2CCSC23CC(C(=O)O)C3)cc1O (centres unmarked) [AVI-347] | <10 |  |  |  |
| O=S1(=O)CCCC(O)(CNc2ncnc3[nH]ccc23)C1 (centres unmarked) [AVI-4317] |  | 100 | 0.28 | IC50 [5]: 110 µM |
| OC1(CNc2ncnc3[nH]ccc23)CCCOC1 (centres unmarked) [AVI-4311] |  | 160 | 0.29 | IC50 [4]: 170 µM |
| O[C@@H]1CNCC[C@H]1Nc1ncnc2[nH]ccc12 [AVI-613] |  |  |  | Average % competition [1]: <10%; inhibition at 200 µM [2]: < 10% |
| CC(C)CCC(CO)Nc1ncnc2[nH]ccc12.O=C(O)C(F)(F)F (centres unmarked) [AVI-3668] |  |  |  | Average % competition [1]: 38%; inhibition at 200 µM [2]: 38% |
| O=C(O)C(F)(F)F.OCC1C2C=CC(C2)N1c1ncnc2[nH]ccc12 (centres unmarked) [AVI-3712] |  |  |  | inhibition at 200 µM [6]: 55%; inhibition at 200 µM [2]: 55% |
| O=C(O)C1CN(C(=O)c2ccc3n[nH]nc3c2)c2ccccc21 (centres unmarked) [AVI-319] | 25 |  |  |  |
| Cc1c[nH]c2ncnc(NCC3(O)CCC(C)(C)CC3)c12 [AVI-4330] |  | 610 | 0.21 | IC50 [4]: 650 µM |
| OCC1(Nc2ncnc3[nH]ccc23)COC1 [AVI-5649] |  |  |  | Average % competition [1]: <10%; inhibition at 200 µM [2]: < 10% |
| CC(C)(C)C(O)CC(CO)Nc1ncnc2[nH]ccc12.O=C(O)C(F)(F)F (centres unmarked) [AVI-3714] |  |  |  | Average % competition [1]: <10%; inhibition at 200 µM [2]: < 10% |
| Cc1c[nH]c2ncnc(NCC3(O)CCSCC3)c12 [AVI-4195, 4-(((5-methyl-7H-pyrrolo[2,3-d]pyrimidin-4-yl)amino)methyl)tetrahydro-2H-thiopyran-4-ol] |  | 48 | 0.31 | IC50 [4]: 52 µM |
| CC(OC(=O)c1ccc2nc(N)sc2c1)C(=O)N1CCCCCC1 (centres unmarked) [AVI-304] | 0 |  |  |  |
| OCC1CC=CCN1c1ncnc2[nH]ccc12 (centres unmarked) [AVI-6002] |  | 48 | 0.35 | IC50 [4]: 52 µM |
| CC(O)C1CCN(c2cc(N3CCC(c4ccccc4)CC3C)ncn2)C1 (centres unmarked) [AVI-6016] |  |  |  | IC50 (read-out: IC50): > 1000 µM |
| CC(Nc1ncnc2[nH]ccc12)C1(O)CCCCC1 (centres unmarked) [AVI-4321] |  | 45 | 0.32 | IC50 [4]: 48 µM |
| Nc1ncnc(N2CCC(C(F)(F)F)C3(CCC3)C2)c1Cl (centres unmarked) [AVI-324] | <10 |  |  |  |
| O=C(O)C1CN(C(=O)c2cccc3[nH]ccc23)c2ccccc21 (centres unmarked) [AVI-314] |  |  |  | IC50 (dose-response, read-out: IC50): > 1000 µM |

| Compound | Average % competition [%] | Ki [3] [µM] | Ligand efficiency (binding enery per heavy atom) [3] | also measured |
| --- | --- | --- | --- | --- |
| CC1CN(C(=O)c2ccccc2S(C)(=O)=O)c2cccnc2O1 (centres unmarked) [AVI-294] | 13 |  |  |  |
| Nc1cccc(CSC2CCc3ccccc32)n1 (centres unmarked) [AVI-6015] |  |  |  | IC50 (read-out: IC50): > 1000 µM |
| CC(C(=O)NCc1c(C(=O)O)[nH]c2ccccc12)n1cncn1 (centres unmarked) [AVI-337] | 14 |  |  |  |
| O=C(O)C(F)(F)F.O=[N+]([O-])c1ccc(C(O)C(CO)Nc2ncnc3[nH]ccc23)cc1 (centres unmarked) [AVI-3672] |  |  |  | Average % competition [1]: 43%; inhibition at 200 µM [2]: 43% |
| Cc1ncc(CN(C)C(=O)c2cccc(N)c2F)s1 [AVI-293] |  |  |  | IC50 (dose-response, read-out: IC50): > 1000 µM; Average % competition [7]: 14% |
| N#Cc1cnc(CSc2nc(-c3ccccc3)co2)nc1N [AVI-332] | <10 |  |  |  |
| Cc1ccc2c(c1)C(=O)N(CCC(=O)Nc1cnc3c(c1)c(C)nn3C)C2=O [AVI-301] | 16 |  |  |  |
| CNC(=O)c1ccc(NC(=O)C2CC(=O)Nc3ccccc32)cc1 (centres unmarked) [AVI-305] | 0 |  |  |  |
| Cc1ccc(C)c(CN2C(=O)NC(C)(Cc3ccc4c(c3)OCO4)C2=O)c1 (centres unmarked) [AVI-320] | 18 |  |  |  |
| O=C(O)C1CN(C(=O)c2ccc3c(c2)OCCO3)CCO1 (centres unmarked) [AVI-323] | 7 |  |  |  |
| OCC1C=CCCN1c1ncnc2[nH]ccc12 (centres unmarked) [AVI-5998] |  | 150 | 0.31 | IC50 [4]: 160 µM |
| C[C@H]1CC[C@H](CO)N(c2ncnc3[nH]ccc23)C1 [AVI-4063] |  | 52 | 0.33 | IC50 [4]: 56 µM |
| OC1(CNc2ncnc3[nH]ccc23)CCC(F)(F)CC1 [AVI-4308] |  | 130 | 0.27 | IC50 [4]: 140 µM |
| Cc1c[nH]c2ncnc(NCC3(O)CCOCC3)c12 [AVI-4194, 4-(((5-methyl-7H-pyrrolo[2,3-d]pyrimidin-4-yl)amino)methyl)tetrahydro-2H-pyran-4-ol] |  | 150 | 0.28 | IC50 [4]: 160 µM |
| CC1CCCC(O)(CNc2ncnc3[nH]ccc23)C1 (centres unmarked) [AVI-4307] |  | 37 | 0.32 | IC50 [4]: 40 µM |
| OC1(CNc2ncnc3[nH]ccc23)CCOCC1 [AVI-4314] |  | 210 | 0.28 | IC50 [4]: 230 µM |
| OC1(CNc2ncnc3[nH]ccc23)CCC2(CC1)OCCO2 [AVI-4315] |  | 200 | 0.23 | IC50 [4]: 210 µM |
| CC(C)(CO)Nc1ncnc2[nH]ccc12 [AVI-5266] |  | 30 |  | IC50 [4]: 32 µM |
| Cc1nnc2n1CCN(C(=O)CN1C(=O)CCOc3ccccc31)C2 [AVI-302] | 0 |  |  |  |
| OCC1CCC2(CCOCC2)CN1c1ncnc2[nH]ccc12 (centres unmarked) [AVI-4065] |  | 400 | 0.21 | IC50 [4]: 430 µM |
| O=C1CC(C(=O)Nc2nc3c(s2)CCCC3)c2ccccc2N1 (centres unmarked) [AVI-307] | 0 |  |  |  |
| CC(O)C1CCCN1c1ncnc2[nH]ccc12 (centres unmarked) [AVI-4062] |  | 51 | 0.35 | fold decrease in affinity relative to AVI-607 (HTRF): ~ 10 fold; IC50 [5]: 55 µM |
| O=C(O)C1CCc2nnc(-c3ccc(F)cc3)n2C1 (centres unmarked) [AVI-326] | 15 |  |  |  |
| CN(C)C[C@@]1(O)CCCN(c2ncnc3[nH]ccc23)C1 [AVI-614] |  |  |  | Average % competition (SARS CoV-2 macrodomain HTRF assay, single dose concentration 200 μM): <10%; inhibition at 200 µM [2]: < 10% |

| Compound | Average % competition [%] | Ki [3] [µM] | Ligand efficiency (binding enery per heavy atom) [3] | also measured |
| --- | --- | --- | --- | --- |
| OC1(CNc2ncnc3[nH]ccc23)CCCC(C(F)(F)F)C1 (centres unmarked) [AVI-4309] |  | 140 | 0.24 | IC50 [4]: 150 µM |
| OC1(CNc2ncnc3[nH]ccc23)COC2CC1C2 (centres unmarked) [AVI-4313] |  | 120 | 0.29 | IC50 [4]: 130 µM |
| Cc1c[nH]c2ncnc(NCC3(O)CCCCC3)c12 [AVI-3761, 1-(((5-methyl-7H-pyrrolo[2,3-d]pyrimidin-4-yl)amino)methyl)cyclohexan-1-ol] |  |  |  | Ki: 12 µM; IC50 [5]: 13 µM |
| OC1(CNc2ncnc3[nH]ccc23)CCCSC1 (centres unmarked) [AVI-4322] |  | 49 | 0.33 | IC50 [4]: 53 µM |
| CN(CC1(O)CCOCC1)c1ncnc2[nH]ccc12 [AVI-4318] |  | 66 | 0.30 | IC50 [4]: 71 µM |
| Cn1ccc2cc(NC(=O)C3CC(=O)NC4CCCCC43)ccc21 (centres unmarked) [AVI-342] | <10 |  |  |  |
| CC1(C)CCC(O)(CNc2ncnc3[nH]ccc23)CC1 [AVI-4310] |  | 71 | 0.29 | IC50 [4]: 76 µM |
| Cc1nc2cc(NC(=O)C3CC(=O)Nc4ccccc43)ccc2o1 (centres unmarked) [AVI-292] | 0 |  |  |  |
| Cc1noc(NCc2cc3ccccc3[nH]c2=O)n1 [AVI-322] | 0 |  |  |  |
| c1ccn2c(Sc3ncnc4ccsc34)nnc2c1 [AVI-308] | 0 |  |  |  |
| O[C@H]1CNCC[C@@H]1Nc1ncnc2[nH]ccc12 [AVI-615] |  |  |  | inhibition at 200 µM [6]: < 10%; inhibition at 200 µM [2]: < 10% |
| Cc1nc(N)ncc1C(=O)NCC(O)Cc1ccc(Cl)cc1 (centres unmarked) [AVI-343] | <10 |  |  |  |
| O=c1[nH]c2ccccc2cc1CNc1nc(C2CC2)ns1 [AVI-346] |  |  |  | IC50 (dose-response, read-out: IC50): > 1000 µM; Average % competition [7]: <10% |
| Nc1ncnc(N2CCCCC3(CCC3)C2)c1Cl [AVI-6017] |  |  |  | IC50 (read-out: IC50): > 1000 µM |
| NC(=O)N1CCC[C@H]1C(=O)Nc1ccc2ncnn2c1 [AVI-330] | 14 |  |  |  |
| O=C(O)C(F)(F)F.OCC(Nc1ncnc2[nH]ccc12)C(O)C1CCCCC1 (centres unmarked) [AVI-3687] |  |  |  | Average % competition [1]: 33%; inhibition at 200 µM [2]: 33% |
| Cc1nn(C)c2sc(C(=O)N3CC(C(=O)O)c4ccccc43)cc12 (centres unmarked) [AVI-327] | 0 |  |  |  |
| Nc1cc(N2CCC3CCCCC3C2)ncn1 (centres unmarked) [AVI-339] |  |  |  | IC50 (dose-response, read-out: IC50): > 1000 µM; Average % competition [7]: <10% |
| O=C1COc2cc(C(=O)N3CC(C(=O)O)c4ccccc43)ccc2N1 (centres unmarked) [AVI-289] |  |  |  | IC50 (dose-response, read-out: IC50): > 1000 µM |
| OC1(CNc2ncnc3[nH]ccc23)CCSCC1 [AVI-4319] |  | 160 | 0.29 | IC50 [4]: 170 µM |
| O=C(c1cc(C2CCCCC2)[nH]n1)N1CCCC(O)(C(F)(F)F)CC1 (centres unmarked) [AVI-318] | 13 |  |  |  |
| CCOc1ccc(-c2nc(CC(=O)N3CCn4cccc4C3C)cs2)cc1 (centres unmarked) [AVI-325] | 0 |  |  |  |
| CNS(=O)(=O)c1cc(C(=O)N2CCOc3ccccc32)n(C)c1 [AVI-309] | 0 |  |  |  |
| CC1c2ccsc2CCN1C(=O)Cc1csc(-c2ccccc2)n1 (centres unmarked) [AVI-287] | 0 |  |  |  |
